Measurements: publication PMC5116089, “Sulfheme formation during homocysteine S-oxygenation by catalase in cancers and neurodegenerative diseases” (Nature Communications, 2016)

What was measured:
Bovine liver catalase [1] = biological target: T1, Bovine liver catalase (Bos taurus, UniProt P00432); test: Time course of catalase inactivation by HCys (activity test); type: biochemical; details: CAT + 2 mM HCys, 1 mM DTPA, pH 7.4, with the additive named (DMPO 100 mM, dimedone 4 mM, SOD 40 U); n=2±s.d.
T1 construct: Bovine liver catalase was also purchased from Sigma-Aldrich; purchased Sigma-Aldrich; host or cells: bovine liver
T1 sequence (P00432 2-527 limits assumed): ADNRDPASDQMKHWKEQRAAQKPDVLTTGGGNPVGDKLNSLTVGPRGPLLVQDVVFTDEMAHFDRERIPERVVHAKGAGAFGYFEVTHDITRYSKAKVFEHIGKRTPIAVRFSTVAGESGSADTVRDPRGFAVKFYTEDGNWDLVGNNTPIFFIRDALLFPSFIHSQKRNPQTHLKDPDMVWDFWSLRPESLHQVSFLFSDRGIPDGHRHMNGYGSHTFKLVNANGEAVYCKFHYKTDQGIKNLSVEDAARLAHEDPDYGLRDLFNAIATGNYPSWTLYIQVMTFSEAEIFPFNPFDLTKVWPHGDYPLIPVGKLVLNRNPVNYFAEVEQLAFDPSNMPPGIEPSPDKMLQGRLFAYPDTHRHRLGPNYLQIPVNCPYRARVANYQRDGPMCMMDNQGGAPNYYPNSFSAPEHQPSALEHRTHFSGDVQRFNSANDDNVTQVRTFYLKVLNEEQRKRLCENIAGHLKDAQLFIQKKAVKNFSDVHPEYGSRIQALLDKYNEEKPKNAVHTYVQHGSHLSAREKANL
Method: CAT activity was measured on an Uvikon 941 spectrophotometer equipped with a temperature controlled water bath (±1 °C) by following the disappearance of H2O2 at 240 nm over 30–120 s at 25 °C. Catalase activity was calculated based on the rate of decomposition of hydrogen peroxide, which is proportional to the reduction of the absorbance at 240 nm. Experiments were carried out in a 3 ml quartz cuvette containing 11.7 mM H2O2 in 50 mM KPi, pH 7.4±1 mM DTPA and the reaction was initiated by adding 0.3–0.6 pmoles of CAT. The effect of biological thiols on the activity of CAT under physiological conditions was determined from a solution of CAT (30–60 nM) preincubated at 25 °C for at least 120 min as a function thiol concentration (0–40 mM for HCys and Cys, 0–100 mM for GSH) in 50 mM KPi, pH 7.4, 1 mM DTPA. Control experiments (biological thiols alone) were also performed in parallel. In each case, 10 μl of the reaction mixture (biological thiols±CAT) was added to the cuvette containing the H2O2 solution to initiate the reaction. Similarly, the effect of biological thiols on the activity of CAT under pathological conditions was determined from a solution of CAT (30–60 nM) containing a 2.124±0.386 molar excess of iron that was preincubated with various concentrations of thiols (0–1 mM) for at least 120 min at 25 °C in 50 mM KP at pH 7.4. The relative half inhibitory concentration (IC50) values were obtained by plotting the relative activity of CAT (A, in per cent) as a function of the concentration of thiol-compounds (RSH) and by fitting the data with the following four parameter logistic equation: A=Amin+(Amax−Amin)/(1+([RSH]/IC50)^n), where Amax is the maximal activity of CAT (constrained at 100%), Amin is the minimum activity achieved at saturating concentration of RSH and n is the Hillslope that characterizes the slope of the curve at its midpoint. The inactivation rate (kinact, min^−1) was extracted from the time course of the inactivation of CAT bioactivity using a fixed concentration of HCys. Accordingly, a solution of CAT (3.5–5 μM) was incubated with 2 mM L-HCys in 50 mM KPi, pH 7.4, 1 mM DTPA. Aliquots (10 μl) were taken at intervals (0–480 min), diluted 1:50 in 50 mM KPi, pH 7.4, 1 mM DTPA and assayed for CAT activity as described above. […] The effect of NaSH on the consumption of H2O2 in cell lysates was determined from a solution of cell lysates (0.5–3 mg ml^−1) incubated on ice with various concentrations of NaSH (0–200 μM). […]

Bovine liver catalase [2] = biological target: T1, Bovine liver catalase; test: Comparative kinetic studies by ultraviolet-visible spectroscopy (compound II and Fe(II) sulfonium formation); type: biochemical; details: CAT + 2 mM HCys, 1 mM DTPA, pH 7.4, with the additive named (dimedone 4 mM, BCN 0.1 mM, SOD 40 U)
Method: Ultraviolet–visible spectra were recorded on a Cary 300 Scan or an Uvikon 941 spectrophotometer equipped with a temperature equilibrating water bath (±1 °C). Spectral changes over time were recorded when CAT was incubated with L-HCys (0.2 or 2 mM), L-Cys (0.2, 2 or 9 mM) or GSH (1 or 30 mM) at 25 °C in a 1 ml quartz cuvette containing a solution of CAT (2.7–5.9 μM) in 50 mM KPi, pH 7.4±1 mM DTPA. Due to half-site reactivity of biological thiols with CAT, the data were recorded versus a blank containing half the concentrations of CAT used in the experiments, that is, a solution of 1.35–2.95 μM CAT in 50 mM KPi at pH 7.4±1 mM DTPA. Reactions were initiated by addition of the thiol-containing compounds. Comparative kinetic studies were performed by incubating CAT ([…] in the experiment, 1.35–1.5 μM in the blank) with 2 mM L-HCys in 50 mM KPi, pH 7.4, 1 mM DTPA with or without […], 5,5-dimethyl-1,3-cyclohexanedione (dimedone, 4 mM), BCN (0.1 mM) or SOD, 40 U). All the experiments were performed at least in duplicate.

Bovine liver catalase [3] = biological target: T1, Bovine liver catalase; test: Catalase activity (H2O2 disappearance at 240 nm) as a function of thiol concentration; type: biochemical; details: DTPA 0-10 mM, CAT 40 nM pre-incubated 120 min, 25 °C
Method: CAT activity was measured on an Uvikon 941 spectrophotometer equipped with a temperature controlled water bath (±1 °C) by following the disappearance of H2O2 at 240 nm over 30–120 s at 25 °C. Catalase activity was calculated based on the rate of decomposition of hydrogen peroxide, which is proportional to the reduction of the absorbance at 240 nm. Experiments were carried out in a 3 ml quartz cuvette containing 11.7 mM H2O2 in 50 mM KPi, pH 7.4±1 mM DTPA and the reaction was initiated by adding 0.3–0.6 pmoles of CAT. The effect of biological thiols on the activity of CAT under physiological conditions was determined from a solution of CAT (30–60 nM) preincubated at 25 °C for at least 120 min as a function thiol concentration (0–40 mM for HCys and Cys, 0–100 mM for GSH) in 50 mM KPi, pH 7.4, 1 mM DTPA. Control experiments (biological thiols alone) were also performed in parallel. In each case, 10 μl of the reaction mixture (biological thiols±CAT) was added to the cuvette containing the H2O2 solution to initiate the reaction. Similarly, the effect of biological thiols on the activity of CAT under pathological conditions was determined from a solution of CAT (30–60 nM) containing a 2.124±0.386 molar excess of iron that was preincubated with various concentrations of thiols (0–1 mM) for at least 120 min at 25 °C in 50 mM KP at pH 7.4. The relative half inhibitory concentration (IC50) values were obtained by plotting the relative activity of CAT (A, in per cent) as a function of the concentration of thiol-compounds (RSH) and by fitting the data with the following four parameter logistic equation: A=Amin+(Amax−Amin)/(1+([RSH]/IC50)^n), where Amax is the maximal activity of CAT (constrained at 100%), Amin is the minimum activity achieved at saturating concentration of RSH and n is the Hillslope that characterizes the slope of the curve at its midpoint. The inactivation rate (kinact, min^−1) was extracted from the time course of the inactivation of CAT bioactivity using a fixed concentration of HCys. Accordingly, a solution of CAT (3.5–5 μM) was incubated with 2 mM L-HCys in 50 mM KPi, pH 7.4, 1 mM DTPA. Aliquots (10 μl) were taken at intervals (0–480 min), diluted 1:50 in 50 mM KPi, pH 7.4, 1 mM DTPA and assayed for CAT activity as described above. Similar experiments were performed in the presence of DMPO, 5,5-dimethyl-1,3-cyclohexanedione (dimedone) or SOD at a final concentration of 100 mM, 4 mM or 40 U, respectively. kinact values were obtained by plotting the relative activity of CAT (A, in per cent) as a function of the incubation time and the data were fitted with an exponential decay function: A=A0+ΔA × e^−kinact × t, with A0 and ΔA (A0+ΔA=100%) the residual activity and the percentage of CAT inhibition when t→∞, respectively. The effect of NaSH on the consumption of H2O2 in cell lysates was determined from a solution of cell lysates (0.5–3 mg ml^−1) incubated on ice with various concentrations of NaSH (0–200 μM). The disappearance of H2O2 was then followed at 240 nm for 2–5 min at 25 °C after the addition of 20–25 μl of the reaction mixture in a 3 ml cuvette containing 11.7 mM H2O2 in 50 mM KPi, pH 7.4. The relative half inhibitory concentration (IC50) values for NaSH were obtained by plotting the relative rate of disappearance of H2O2 (ΔA240 nm/min) as a function of the concentration of NaSH and by fitting the data with an hyperbolic decay equation. All the experiments were performed at least in triplicate.

[4] = test system: M17 human neuroblastoma cells; test: Relative specific activity of catalase (SpCAT) in cells treated with rotenone; type: cell-based; details: BE2-M17 cells, 100 nM rotenone, 48 h
Method: Hek293T cells (n=2) were plated and transfected the following day with pcDNA (empty vector), Htt-N171-82Q (Htt) or Alpha-synuclein-A53T (α-Syn) plasmids (20 μg) with the calcium phosphate method. BE2-M17 cells (n=2) were plated and treated the following day with 100 nM rotenone dissolved in DMSO or DMSO alone. Hek293T and BE2-M17 cells were collected 48 h after transfection or treatment with DMSO±rotenone, respectively.
The relative specific activity (activity and quantity) of catalase in the cell lysates was determined using the kit ab118184 from Abcam (Cambridge, MA). The measurements were performed in duplicate as per the manufacturer's protocol. Briefly, catalase in cell lysates (0.1–0.2 mg cell lysates per assay) was immunocaptured within the wells of the microplate. An assay buffer, which contains H2O2 that reacts with a substrate to generate a luminescent product, was added to each well. […] Then, the quantity of catalase was measured by adding to each well an anti-catalase primary detector antibody. […] A blue colour (absorbance at 600 nm) developed in proportion to the amount of catalase bound. Luminescence and absorbance measurements were performed on an EnSpire Multilabel Reader 2300 (PerkinElmer). […] The protocol above was then followed to determine activity measurement and catalase quantification.

[5] = test system: crypt and surface epithelial cells; test: Relative specific activity of catalase (SpCAT) in rodent model of DSS-induced colitis; type: in vivo, mice; details: DSS 3.5% in drinking water for 5 days, cells isolated day 7
Method: Seven-week-old male C57BL/6J mice (n=6; Envigo, Gannat, France) were acclimated for 1 week with free access to standard mouse chow and tap water. Each mouse was maintained in a cage under controlled conditions of temperature (23 °C), humidity (55±10%) and light (12:12 h light–dark cycle). Colitis was induced by the addition of DSS (3.5% (wt/vol), 36,000–50,000 MW, MP Biomedicals Illkirch-Graffenstaden, France) to the drinking water for 5 days (n=3). Healthy control animals (n=3) received fresh tap water, only. Two days after DSS arrest (day 7), mice were killed. […]
The relative specific activity (activity and quantity) of catalase in the cell lysates was determined using the kit ab118184 from Abcam (Cambridge, MA). […] Then, the quantity of catalase was measured by adding to each well an anti-catalase primary detector antibody. […] A blue colour (absorbance at 600 nm) developed in proportion to the amount of catalase bound. Luminescence and absorbance measurements were performed on an EnSpire Multilabel Reader 2300 (PerkinElmer). […] The protocol above was then followed to determine activity measurement and catalase quantification.

CC1(C)CCC=[N+]1[O-] [DMPO, 5,5-Dimethyl-1-Pyrroline-N-Oxide]
kinact (Bovine liver catalase [1]): 0.00015 s⁻¹
Ultraviolet–visible spectroscopy kobs(6) (CAT–Fe(IV)=O formation) (Bovine liver catalase [2]): 0.010 ± 0.002 min⁻¹

O=C(O)CN(CCN(CC(=O)O)CC(=O)O)CCN(CC(=O)O)CC(=O)O [DTPA, diethylene triamine pentaacetic acid]
effect on the activity of CAT (Bovine liver catalase [3]): does not interfere

CC1(C)CC(=O)CC(=O)C1 [Dimedone, 5,5-dimethyl-1,3-cyclohexanedione]
kinact (Bovine liver catalase [1]): 0.0003 s⁻¹
Ultraviolet–visible spectroscopy kobs(6) (CAT–Fe(IV)=O formation) (Bovine liver catalase [2]): ^†0.019±0.003 min^−1

C=C(C)[C@H]1Cc2c(ccc3c2O[C@@H]2COc4cc(OC)c(OC)cc4[C@@H]2C3=O)O1 [rotenone]
SpCAT versus control [4]: inhibited

Dextran Sulfate Sodium [DSS]
SpCAT versus untreated mice [5]: not modified

bicyclo[6.1.0]nonyne [BCN]
Ultraviolet–visible spectroscopy kobs(6) (CAT–Fe(IV)=O formation) (Bovine liver catalase [2]): 0.018 ± 0.002 min⁻¹

superoxide dismutase [SOD]
Activity test kinact (Bovine liver catalase [1]): 0.018 ± 0.001 min⁻¹
Ultraviolet–visible spectroscopy kobs(6) (CAT–Fe(IV)=O formation) (Bovine liver catalase [2]): 0.020 ± 0.002 min⁻¹
